Key:
Type in all cases: biochemical
[1] = biological target: T1, recombinant human 17β-HSD1 (Homo sapiens, UniProt P14061); assay: Inhibition of recombinant human 17β-HSD1 (estrone to estradiol conversion, HPLC/radioactivity); conditions: compound 100 nM; 30 nM estrone, 1 mM NADPH, 30 min RT
T1 construct: made in house; host or cells: Sd9 (Sf9) insect cells, baculovirus (Bac to Bac Expression System)
T1 sequence (P14061 1-328): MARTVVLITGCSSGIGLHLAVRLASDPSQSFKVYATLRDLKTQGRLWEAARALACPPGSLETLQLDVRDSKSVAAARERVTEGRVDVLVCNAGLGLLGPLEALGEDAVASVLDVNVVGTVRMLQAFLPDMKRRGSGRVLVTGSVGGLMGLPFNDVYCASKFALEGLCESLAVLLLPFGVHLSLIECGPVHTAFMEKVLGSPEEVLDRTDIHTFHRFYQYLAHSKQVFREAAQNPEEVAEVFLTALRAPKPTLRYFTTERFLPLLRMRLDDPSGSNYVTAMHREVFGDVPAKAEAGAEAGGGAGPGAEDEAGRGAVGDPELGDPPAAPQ
Protocol: 17β-HSD1 production and isolation: Recombinant baculovirus was generated by the “Bac to Bac Expression System” (Invitrogen). Recombinant bacmid was transfected to Sd9 insect cells using “Cellfectin Reagent” (Invitrogen). 60 h later cells were harvested; the microsomal fraction was isolated as described by Puranen, T. J., Poutanen, M. H., Peltoketo, H. E., Vihko, P. T. and Vihko, R. K. (1994) Site-directed mutagenesis of the putative active site of human 17 β-hydroxysteroid dehydrogenase type 1. Biochem. J. 304: 289-293. Aliquots were stored frozen until determination of enzymatic activity.
Assay—Inhibition of recombinant human 17β-HSD1: Recombinant protein (1 μg/ml) was incubated in 20 mM KH2PO4 pH 7.4 with 30 nM estrone (including 800 000 cpm/ml of ^3H-estrone) and 1 mM NADPH for 30 min at RT, in the presence of the potential inhibitor at concentrations 1 μM or 0.1 μM. Inhibitor stock solutions were prepared in DMSO. Final concentration of DMSO was adjusted to 1% in all samples. The enzyme reaction was stopped by addition of 10% trichloroacetic acid (final concentration). Samples were centrifuged in a microtiter plate at 4000 rpm for 10 min. Supernatants were applied to reverse phase HPLC on a Waters Symmetry C18 column, equipped with a Waters Sentry Guard column. Isocratic HPLC runs were performed at RT at a flow rate of 1 ml/min in acetonitrile:water 48:52 as running solvent. Radioactivity was monitored in the eluate by a Scintillation Analyzer. Total radioactivity for estrone and estradiol were determined in each sample and percent conversion of estrone to estradiol was calculated according to the following formula:
% conversion=100×{(cpm estradiol in sample with inhibitor)/[(cpm estrone in sample with inhibitor)+(cpm estradiol in sample with inhibitor)]}/{[(cpm estradiol in sample without inhibitor)/[(cpm estrone in sample without inhibitor)+(cpm estradiol in sample without inhibitor)]}.
(§1) Percent inhibition was calculated followingly: % inhibition=100−% conversion.

[2] = tested on: HSD1 enzyme that is expressed in rabbit placenta tissue; assay: Inhibition of E1 to E2 conversion in rabbit placenta tissue homogenate; conditions: compound 100 nM, 30 nM estrone, 1 mM β-NADPH, 30 min
Protocol: The assay is based on an enzymatic reaction where HSD1 enzyme that is expressed in rabbit placenta tissue converts its natural substance estrone (E1) to estradiol (E2) in the presence of a co-factor β-NADPH.
Homogenization of rabbit placenta tissue: Weight a piece of the frozen tissue into a Precellys ck28 bead tube. Add buffer solution (20 mM KH2PO4 with 1 mM EDTA, pH 7.4) in 1:2 ratio (e.g. 300 mg of tissue:600 μl reaction buffer solution). Insert the bead tubes to homogenizer and homogenize 2×30 s. 6000 rpm.
Centrifugated 5 min., 2600 rpm at +4° C. and collect supernatant. Aliquots of homogenate are stored in −80° C.
Assay—Inhibition of E1 to E2 conversion in rabbit placenta tissue: The reaction takes place in a buffer solution (20 mM KH2PO4 with 1 mM EDTA, pH 7,4), including appropriate amount of rabbit placenta homogenate, co-factor (1 mM β-NADPH), Substrate (30 nM estrone), labelled substrate as tracer (5 nM [^3H]-estrone), and the potential inhibitor at concentrations 1 μM or 0.1 μM. Inhibitor stock solutions were prepared in DMSO. Final concentration of DMSO was adjusted to 1% in all samples. During a 30-minute incubation part of the estrone is converted to estradiol. The reaction is stopped by lowering the pH to 1 with 10% trichloro acetic acid (TCA). The substrate and conversion products are analyzed by HPLC and a Scintillation counter analyzer. Total radioactivity for estrone and estradiol were determined in each sample and percent conversion of estrone to estradiol was calculated according to the following formula:
% conversion=100×{(cpm estradiol in sample with inhibitor)/[(cpm estrone in sample with inhibitor)+(cpm estradiol in sample with inhibitor)]}/{(cpm estradiol in sample without inhibitor)/[(cpm estrone in sample without inhibitor)+(cpm estradiol in sample without inhibitor)]}.
as §1

[3] = biological target: T2, recombinant human 17β-HSD2 (Homo sapiens, UniProt P37059); assay: Inhibition of recombinant human 17β-HSD2 (estradiol to estrone conversion, HPLC/radioactivity); conditions: compound 1 μM; 50 nM estradiol, 1 mM NADH, 30 min RT
T2 construct: made in house; host or cells: Sd9 (Sf9) insect cells, baculovirus (Bac to Bac Expression System)
T2 sequence (P37059 1-387): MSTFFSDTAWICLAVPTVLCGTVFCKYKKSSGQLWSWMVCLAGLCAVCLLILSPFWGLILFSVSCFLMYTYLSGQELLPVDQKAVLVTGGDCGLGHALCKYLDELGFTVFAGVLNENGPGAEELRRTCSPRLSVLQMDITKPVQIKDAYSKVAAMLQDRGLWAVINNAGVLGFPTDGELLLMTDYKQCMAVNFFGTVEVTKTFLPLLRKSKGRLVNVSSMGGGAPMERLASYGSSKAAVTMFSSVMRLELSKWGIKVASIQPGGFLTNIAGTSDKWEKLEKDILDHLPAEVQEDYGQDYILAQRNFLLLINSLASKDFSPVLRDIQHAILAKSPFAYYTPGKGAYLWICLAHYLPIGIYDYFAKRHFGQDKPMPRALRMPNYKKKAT
Protocol: 17β-HSD2 production and isolation: Similarly to 173-HSD1 the Recombinant baculovirus was generated by the “Bac to Bac Expression System” (Invitrogen). Recombinant bacmid was transfected to Sd9 insect cells using “Cellfectin Reagent” (Invitrogen). 60 h later cells were harvested and supernatant were fractionated by the following protocol: • cells were dissolved into 40 ml of A-buffer (40 mM TRIS, pH8.0, 20% glycerol, 20 μM NAD, 0.4 mM PMSF, 150 mM NaCl, 0.5% dodecyl-β-maltoside+protease inhibitor cocktail) • cells were sonicated • lysate was incubated on ice for 15 min • lysate was centrifuged 5000 rpm 15 min, +4° C. • centrifugation of the supernatant 180 000 g 30 min, +4° C. • pellet was dissolved into 8 ml of A-buffer • not resuspended material was removed by centrifugation 5000 rpm 15 min, +4° C. • the clear supernatant was divided into 100 μl aliquots and were stored frozen until determination of enzymatic activity.
The amount of 173-HSD2 was analysed by immunoblotting and total protein concentration of each extract batch was determined.
Assay—Inhibition of recombinant human 17β-HSD2: Recombinant protein (4 μg/ml) was incubated in 20 mM KH2PO4 pH 8.5 with 50 nM estradiol (including 800 000 cpm/ml of ^3H-estradiol) and 1 mM NADH for 30 min at RT, in the presence of the potential inhibitor at concentrations 1 μM or 0.1 μM. Inhibitor stock solutions were prepared in DMSO. Final concentration of DMSO was adjusted to 1% in all samples. The enzyme reaction was stopped by addition of 10% trichloroacetic acid (final concentration). Samples were centrifuged in a microtiter plate at 4000 rpm for 10 min. Supernatants were applied to reverse phase HPLC on a Waters Symmetry C18 column, equipped with a Waters Sentry Guard column. Isocratic HPLC runs were performed at RT at a flow rate of1 ml/min in acetonitrile:water 48:52 as running solvent. Radioactivity was monitored in the eluate by a Scintillation Analyzer. Total radioactivity for estrone and estradiol were determined in each sample and percent conversion of estradiol to estrone was calculated according to the following formula:
% conversion=100×{(cpm estrone in sample with inhibitor)/[(cpm estradiol in sample with inhibitor)+(cpm estrone in sample with inhibitor)]}/{[(cpm estrone in sample without inhibitor)/[(cpm estradiol in sample without inhibitor)+(cpm estrone in sample without inhibitor)]}.
as §1

| Structure (SMILES) | inhibition at 0.1 µM [1] [%] | Rabbit placenta inhibition % @100 nM [2] [%] | inhibition at 1 µM [3] [%] |
| --- | --- | --- | --- |
| CC(C)(C)c1cc(NC(=O)CC[C@@H]2c3c[nH]nc3[C@@]3(C)CCC4c5ccc(F)cc5CCC4C23)no1 (stereo partly drawn) [Compound 102, N-(5-(tert-butyl)isoxazol-3-yl)-3-((8aS,12 S)-4-fluoro-8a-methyl-1,2,6b,7,8,8a,10,12,12a,12b-decahydronaphtho[2′,1′:4,5]indeno[1,2-c]pyrazol-12-yl)propanamide] | 80 | 19 | 8 |
| C[C@]12CCC3c4ccccc4CCC3C1[C@H](CCC(=O)N1CCC3(CCOCC3)C1)c1c[nH]nc12 (stereo partly drawn) [Compound 177, 3-((8aS,12S)-8a-methyl-1,2,6b,7,8,8a,10,12,12a,12b-decahydronaphtho[2′,1′:4,5]indeno[1,2-c]pyrazol-12-yl)-1-(8-oxa-2-azaspiro[4.5]decan-2-yl)propan-1-one] | 89 | 16 | 4 |
| C[C@]12CCC3c4ccccc4CCC3C1[C@H](CCC(=O)N1Cc3ccccc3C1)c1c[nH]nc12 (stereo partly drawn) [Compound 180, 1-(isoindolin-2-yl)-3-((8aS,12S)-8a-methyl-1,2,6b,7,8,8a,10,12,12a,12b-decahydronaphtho[2′,1′:4,5]indeno[1,2-c]pyrazol-12-yl)propan-1-one] | 92 | 14 | 12 |
| C[C@]12CCC3c4cccc(F)c4CCC3C1[C@H](CCC(=O)Nc1cccnn1)c1c[nH]nc12 (stereo partly drawn) [Compound 237, 3-((8aS,12S)-3-fluoro-8a-methyl-1,2,6b,7,8,8a,10,12,12a,12b-decahydronaphtho[2′,1′:4,5]indeno[1,2-c]pyrazol-12-yl)-N-(pyridazin-3-yl)propanamide] | 84 | 58 | 1 |
| C[C@]12CCC3c4cccc(F)c4CCC3C1[C@H](CCC(=O)Nc1ccc(F)cn1)c1c[nH]nc12 (stereo partly drawn) [Compound 12, 3-((8aS,12S)-3-fluoro-8a-methyl-1,2,6b,7,8,8a,10,12,12a,12b-decahydronaphtho[2′,1′:4,5]indeno[1,2-c]pyrazol-12-yl)-N-(5-fluoropyridin-2-yl)propanamide] | 92 | 46 | 5 |
| Cc1ccnc(NC(=O)CC[C@@H]2c3c[nH]nc3[C@@]3(C)CCC4c5cccc(F)c5CCC4C23)c1 (stereo partly drawn) [Compound 27, 3-((8aS,12S)-3-fluoro-8a-methyl-1,2,6b,7,8,8a,10,12,12a,12b-decahydronaphtho[2′,1′:4,5]indeno[1,2-c]pyrazol-12-yl)-N-(4-methylpyridin-2-yl)propanamide] | 96 | 55 | 2 |
| C[C@]12CCC3c4ccccc4CCC3C1[C@H](CCC(=O)N1CCOCC1)c1c[nH]nc12 (stereo partly drawn) [Compound 249, 3-((8aS,12S)-8a-methyl-1,2,6b,7,8,8a,10,12,12a,12b-decahydronaphtho[2′,1′:4,5]indeno[1,2-c]pyrazol-12-yl)-1-morpholinopropan-1-one] | 59 |  | 7 |
| CC(C)(C)NC(=O)CC[C@@H]1c2c[nH]nc2[C@@]2(C)CCC3c4cccc(F)c4CCC3C12 (stereo partly drawn) [Compound 72, N-(tert-butyl)-3-((8aS,12S)-3-fluoro-8a-methyl-1,2,6b,7,8,8a,10,12,12a,12b-decahydronaphtho[2′,1′:4,5]indeno[1,2-c]pyrazol-12-yl)propanamide] | 93 |  | 2 |
| C[C@]12CCC3c4ccccc4CCC3C1[C@H](CCC(=O)Nc1ncccc1F)c1c[nH]nc12 (stereo partly drawn) [Compound 264, N-(3-fluoropyridin-2-yl)-3-((8aS,12S)-8a-methyl-1,2,6b,7,8,8a,10,12,12a,12b-decahydronaphtho[2′,1′:4,5]indeno[1,2-c]pyrazol-12-yl)propanamide] | 54 |  | 4 |
| C[C@]12CCC3c4ccccc4CCC3C1[C@H](CCC(=O)Nc1ncc(F)cc1F)c1c[nH]nc12 (stereo partly drawn) [Compound 261, N-(3,5-difluoropyridin-2-yl)-3-((8aS,12S)-8a-methyl-1,2,6b,7,8,8a,10,12,12a,12b-decahydronaphtho[2′,1′:4,5]indeno[1,2-c]pyrazol-12-yl)propanamide] | 50 |  | 9 |
| C[C@]12CCC3c4ccc(F)cc4CCC3C1[C@H](CCC(=O)N1CCCC1)c1c[nH]nc12 (stereo partly drawn) [Compound 117, 3-((8aS,12S)-4-fluoro-8a-methyl-1,2,6b,7,8,8a,10,12,12a,12b-decahydronaphtho[2′,1′:4,S]indeno[1,2-c]pyrazol-12-yl)-1-(pyrrolidin-1-yl)propan-1-one] | 73 |  | 2 |

From patent US20220041647A1, “ESTRA-1,3,5(10)-TRIENE COMPOUNDS CONDENSED IN POSITION 16(17) WITH A PYRAZOLE RING AS INHIBITORS OF 17-HSD1” (FORENDO PHARMA LTD, priority 2018, published 2022)
